Laboratory results from ChEMBL document CHEMBL2331488, “Biotransformation of LASSBio-579 and pharmacological evaluation of p-hydroxylated metabolite a N-phenylpiperazine antipsychotic lead compound” (Eur J Med Chem, 2013).

Assays:
[1] = molecular target: 5-hydroxytryptamine receptor 2A (Rattus norvegicus, UniProt P14842); test: Displacement of [3H]-ketanserin from 5HT2A receptor in Wistar rat cortical membrane after 15 mins by liquid scintillation counting; format: cell membranes
[2] = molecular target: T1, 5-hydroxytryptamine receptor 2C (Homo sapiens, UniProt P28335); test: Displacement of [3H]-mesulergine from human 5HT2C receptor after 60 mins by liquid scintillation counting
T1 sequence (P28335 whole entry): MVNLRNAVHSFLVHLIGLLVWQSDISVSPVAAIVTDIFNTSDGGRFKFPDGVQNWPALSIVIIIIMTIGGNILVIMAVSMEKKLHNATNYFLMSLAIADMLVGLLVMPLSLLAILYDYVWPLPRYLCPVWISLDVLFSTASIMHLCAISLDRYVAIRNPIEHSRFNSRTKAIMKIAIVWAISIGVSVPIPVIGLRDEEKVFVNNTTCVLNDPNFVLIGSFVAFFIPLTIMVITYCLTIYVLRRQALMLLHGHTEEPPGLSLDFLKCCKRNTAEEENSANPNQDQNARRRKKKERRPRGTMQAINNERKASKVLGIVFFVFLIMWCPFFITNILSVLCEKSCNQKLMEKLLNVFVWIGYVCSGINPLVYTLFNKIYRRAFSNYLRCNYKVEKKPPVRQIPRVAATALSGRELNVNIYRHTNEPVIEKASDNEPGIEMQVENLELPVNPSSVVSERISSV

[3] = molecular target: T2, Alpha-2A adrenergic receptor (Rattus norvegicus, UniProt P22909); test: Displacement of [3H]-RX821002 from alpha2A adrenergic receptor in Wistar rat cortical membrane after 45 mins by liquid scintillation counting; format: cell membranes
T2 sequence (P22909 whole entry): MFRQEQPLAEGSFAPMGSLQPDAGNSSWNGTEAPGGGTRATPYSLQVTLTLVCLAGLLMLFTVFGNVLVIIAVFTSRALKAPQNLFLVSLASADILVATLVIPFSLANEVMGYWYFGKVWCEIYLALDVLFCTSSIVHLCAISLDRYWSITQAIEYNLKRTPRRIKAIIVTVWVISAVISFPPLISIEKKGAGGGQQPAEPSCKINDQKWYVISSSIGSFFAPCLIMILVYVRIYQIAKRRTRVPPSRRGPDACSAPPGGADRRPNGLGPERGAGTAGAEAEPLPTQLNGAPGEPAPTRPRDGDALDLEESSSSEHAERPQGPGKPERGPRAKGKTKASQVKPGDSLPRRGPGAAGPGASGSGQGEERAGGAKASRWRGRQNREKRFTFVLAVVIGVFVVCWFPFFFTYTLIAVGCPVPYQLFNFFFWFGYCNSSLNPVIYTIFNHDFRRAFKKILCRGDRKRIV

D(2) dopamine receptor = D(2) dopamine receptor (Rattus norvegicus, UniProt P61169); test: Displacement of [3H]-YM-09151-2 from D2 dopamine receptor in Wistar rat brain striatal membrane after 60 mins by liquid scintillation counting; format: cell membranes, Striatum
[4] = molecular target: Muscarinic acetylcholine receptor; test: Displacement of [3H]-QNB from muscarinic receptor in Wistar rat brain membrane after 60 mins by liquid scintillation counting; format: cell membranes
[5] = molecular target: T3, 5-hydroxytryptamine receptor 1A (Rattus norvegicus, UniProt P19327); test: Displacement of [3H]-OH-8-DPAT from 5HT1A receptor in Wistar rat hippocampal membrane after 15 mins by liquid scintillation counting; format: cell membranes, Hippocampus
T3 sequence (P19327 whole entry): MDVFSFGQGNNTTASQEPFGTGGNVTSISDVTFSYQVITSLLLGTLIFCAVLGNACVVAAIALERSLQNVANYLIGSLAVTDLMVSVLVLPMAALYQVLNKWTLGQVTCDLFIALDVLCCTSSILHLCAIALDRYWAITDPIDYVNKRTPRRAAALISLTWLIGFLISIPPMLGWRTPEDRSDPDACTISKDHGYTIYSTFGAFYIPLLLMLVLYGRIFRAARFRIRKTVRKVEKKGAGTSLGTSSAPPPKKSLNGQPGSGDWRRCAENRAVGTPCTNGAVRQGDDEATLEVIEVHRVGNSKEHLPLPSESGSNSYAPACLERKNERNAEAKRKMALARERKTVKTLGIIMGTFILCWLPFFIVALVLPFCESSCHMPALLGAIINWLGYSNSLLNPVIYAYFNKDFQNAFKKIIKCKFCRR

[6] = molecular target: T4, Alpha-1B adrenergic receptor (Rattus norvegicus, UniProt P15823); test: Displacement of [3H]-prazosin from alpha1B adrenergic receptor in Wistar rat liver membrane after 45 mins by liquid scintillation counting; format: cell membranes
T4 sequence (P15823 whole entry): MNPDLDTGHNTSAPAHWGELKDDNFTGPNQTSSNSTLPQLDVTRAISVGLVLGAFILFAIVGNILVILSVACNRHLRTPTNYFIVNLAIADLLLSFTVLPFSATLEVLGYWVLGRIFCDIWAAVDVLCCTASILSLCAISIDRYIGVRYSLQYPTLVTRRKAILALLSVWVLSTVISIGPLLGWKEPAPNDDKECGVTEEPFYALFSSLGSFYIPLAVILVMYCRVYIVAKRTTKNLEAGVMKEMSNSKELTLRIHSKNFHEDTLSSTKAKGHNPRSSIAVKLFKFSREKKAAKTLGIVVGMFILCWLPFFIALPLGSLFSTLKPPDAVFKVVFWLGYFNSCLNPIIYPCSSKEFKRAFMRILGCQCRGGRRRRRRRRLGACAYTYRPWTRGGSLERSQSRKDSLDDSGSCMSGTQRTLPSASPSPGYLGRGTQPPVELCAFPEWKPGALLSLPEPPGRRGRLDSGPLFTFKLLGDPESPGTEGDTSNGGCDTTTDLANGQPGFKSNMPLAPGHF

D(4) dopamine receptor = molecular target: T5, D(4) dopamine receptor (Homo sapiens, UniProt P21917); test: Displacement of [3H]-YM-09151-2 from human D4 dopamine receptor after 120 mins by liquid scintillation counting
T5 sequence (P21917 whole entry): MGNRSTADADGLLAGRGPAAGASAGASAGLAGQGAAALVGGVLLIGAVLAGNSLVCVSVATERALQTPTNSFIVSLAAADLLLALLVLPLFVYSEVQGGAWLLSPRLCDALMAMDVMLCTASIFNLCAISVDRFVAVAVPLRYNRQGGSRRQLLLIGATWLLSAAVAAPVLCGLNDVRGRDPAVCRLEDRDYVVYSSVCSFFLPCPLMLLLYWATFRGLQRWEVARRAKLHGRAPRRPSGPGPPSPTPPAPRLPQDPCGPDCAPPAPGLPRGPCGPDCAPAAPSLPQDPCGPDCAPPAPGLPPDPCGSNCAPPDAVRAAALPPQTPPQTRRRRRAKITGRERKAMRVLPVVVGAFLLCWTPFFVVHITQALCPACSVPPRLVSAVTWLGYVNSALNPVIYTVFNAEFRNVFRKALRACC

Plasma = test: Drug metabolism in Wistar rat plasma assessed as p-hydroxylated metabolite level at 50 mg/kg, ip after 24 hrs; format: ADME, organism-based; parameters: dose 50 mg/kg, route intraperitoneal; conditions: in vivo

D(2) dopamine receptor, sequence (P61169 whole entry): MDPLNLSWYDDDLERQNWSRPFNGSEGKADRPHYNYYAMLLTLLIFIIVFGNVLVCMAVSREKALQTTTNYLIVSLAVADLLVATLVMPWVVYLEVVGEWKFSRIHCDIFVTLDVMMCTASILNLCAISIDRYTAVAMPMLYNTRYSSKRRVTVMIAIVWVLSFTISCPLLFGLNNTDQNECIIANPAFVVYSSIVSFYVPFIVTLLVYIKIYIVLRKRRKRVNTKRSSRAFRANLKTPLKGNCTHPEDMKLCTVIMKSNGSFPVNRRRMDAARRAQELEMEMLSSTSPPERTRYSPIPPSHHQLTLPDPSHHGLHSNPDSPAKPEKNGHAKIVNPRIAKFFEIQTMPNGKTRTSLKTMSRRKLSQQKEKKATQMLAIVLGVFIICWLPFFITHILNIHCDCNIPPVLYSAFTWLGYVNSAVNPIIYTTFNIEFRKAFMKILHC
5-hydroxytryptamine receptor 2A, sequence (P14842 whole entry): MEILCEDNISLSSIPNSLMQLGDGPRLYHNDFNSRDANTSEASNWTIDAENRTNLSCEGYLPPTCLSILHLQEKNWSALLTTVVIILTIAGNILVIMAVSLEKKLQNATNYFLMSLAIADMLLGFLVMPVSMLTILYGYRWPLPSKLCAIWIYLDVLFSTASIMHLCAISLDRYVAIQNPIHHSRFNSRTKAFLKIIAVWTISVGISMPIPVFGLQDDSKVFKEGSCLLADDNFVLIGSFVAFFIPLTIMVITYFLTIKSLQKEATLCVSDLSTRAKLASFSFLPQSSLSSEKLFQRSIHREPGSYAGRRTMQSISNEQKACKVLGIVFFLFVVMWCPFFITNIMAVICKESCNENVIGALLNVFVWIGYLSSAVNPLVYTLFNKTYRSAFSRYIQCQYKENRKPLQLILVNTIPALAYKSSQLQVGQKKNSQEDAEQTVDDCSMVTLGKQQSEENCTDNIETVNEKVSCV

| Structure (SMILES) | Ki [1] [µM] | Ki [2] [µM] | Ki [3] [µM] | Ki (D(2) dopamine receptor) [µM] | Ki [4] [µM] | Ki [5] [µM] | Ki [6] [µM] | Ki (D(4) dopamine receptor) [µM] | Drug metabolism (Plasma) |
| --- | --- | --- | --- | --- | --- | --- | --- | --- | --- |
| Oc1ccc(N2CCN(Cc3cnn(-c4ccc(Cl)cc4)c3)CC2)cc1 | 8.22 | 12.3 | 6.45 | 0.53 | > 30 | 5.87 | 1.15 | 0.034 |  |
| Clc1ccc(-n2cc(CN3CCN(c4ccccc4)CC3)cn2)cc1 | 6.82 | 8.44 | 2.49 | 0.38 | > 30 | 0.21 | 3 | 0.17 | Active |
